Experimental data from US7713958B2, “Compounds and compositions as protein kinase inhibitors” (IRM LLC, priority 2003, dated 2010).

Columns and labels:
Type in all cases: biochemical
[1] = target: c-src (Homo sapiens, UniProt P12931); assay: Kinase inhibition at 10 μM, c-src; conditions: 10 μM of Compound; read-out: Percentage Inhibition of c-src
[2] = target: c-Kit (Homo sapiens, UniProt P10721); assay: Kinase inhibition at 10 μM, c-Kit; conditions: 10 μM of Compound; read-out: Percentage Inhibition of c-Kit
Sequence of c-Kit (P10721 26-976): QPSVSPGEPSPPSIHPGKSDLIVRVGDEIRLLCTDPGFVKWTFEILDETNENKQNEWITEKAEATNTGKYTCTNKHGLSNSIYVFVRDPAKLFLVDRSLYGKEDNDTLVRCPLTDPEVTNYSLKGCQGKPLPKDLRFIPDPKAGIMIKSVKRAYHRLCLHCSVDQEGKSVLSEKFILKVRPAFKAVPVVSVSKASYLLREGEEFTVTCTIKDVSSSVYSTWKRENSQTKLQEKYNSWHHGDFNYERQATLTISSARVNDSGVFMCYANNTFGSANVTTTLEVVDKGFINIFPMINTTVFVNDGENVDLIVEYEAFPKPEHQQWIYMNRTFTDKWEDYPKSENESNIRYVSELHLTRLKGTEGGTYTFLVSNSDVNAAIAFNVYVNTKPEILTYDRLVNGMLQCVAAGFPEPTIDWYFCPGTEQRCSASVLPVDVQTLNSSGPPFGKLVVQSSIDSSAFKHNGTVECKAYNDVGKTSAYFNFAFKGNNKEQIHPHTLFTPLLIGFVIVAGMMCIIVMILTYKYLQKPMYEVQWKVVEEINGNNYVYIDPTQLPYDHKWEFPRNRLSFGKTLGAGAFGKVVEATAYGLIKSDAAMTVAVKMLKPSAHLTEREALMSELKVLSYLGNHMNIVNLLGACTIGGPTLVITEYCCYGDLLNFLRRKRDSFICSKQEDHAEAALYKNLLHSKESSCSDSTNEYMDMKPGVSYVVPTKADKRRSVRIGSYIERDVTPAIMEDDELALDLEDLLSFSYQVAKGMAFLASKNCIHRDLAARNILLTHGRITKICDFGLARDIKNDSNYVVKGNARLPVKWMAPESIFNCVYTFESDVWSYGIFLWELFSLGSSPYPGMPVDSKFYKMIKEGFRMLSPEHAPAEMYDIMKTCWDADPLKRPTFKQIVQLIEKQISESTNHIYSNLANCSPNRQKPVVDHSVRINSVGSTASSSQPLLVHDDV

[3] = target: FGFR-1 (Homo sapiens, UniProt P11362); assay: Kinase inhibition at 10 μM, FGFR-1; conditions: 10 μM of Compound; read-out: Percentage Inhibition of FGFR-1
[4] = target: KDR (Homo sapiens, UniProt P35968); assay: Kinase inhibition at 10 μM, KDR; conditions: 10 μM of Compound; read-out: Percentage Inhibition of KDR
[5] = target: c-Met (Homo sapiens, UniProt P08581); assay: Kinase inhibition at 10 μM, c-Met; conditions: 10 μM of Compound; read-out: Percentage Inhibition of c-Met
[6] = target: CDK1 (Homo sapiens, UniProt P06493); assay: Kinase inhibition at 10 μM, CDK1; conditions: 10 μM of Compound; read-out: Percentage Inhibition of CDK1
Sequence of CDK1 (P06493 whole entry, species assumed): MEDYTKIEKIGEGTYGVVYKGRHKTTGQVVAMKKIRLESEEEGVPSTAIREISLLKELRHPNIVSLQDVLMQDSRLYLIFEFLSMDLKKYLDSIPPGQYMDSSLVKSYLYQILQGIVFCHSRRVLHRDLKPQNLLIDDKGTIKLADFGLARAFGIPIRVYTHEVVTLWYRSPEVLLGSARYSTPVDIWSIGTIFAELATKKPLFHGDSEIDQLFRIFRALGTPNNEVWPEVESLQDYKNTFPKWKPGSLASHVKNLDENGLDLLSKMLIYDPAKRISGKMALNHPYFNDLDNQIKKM
Sequence of CDK1 (P14635 whole entry partner, species assumed): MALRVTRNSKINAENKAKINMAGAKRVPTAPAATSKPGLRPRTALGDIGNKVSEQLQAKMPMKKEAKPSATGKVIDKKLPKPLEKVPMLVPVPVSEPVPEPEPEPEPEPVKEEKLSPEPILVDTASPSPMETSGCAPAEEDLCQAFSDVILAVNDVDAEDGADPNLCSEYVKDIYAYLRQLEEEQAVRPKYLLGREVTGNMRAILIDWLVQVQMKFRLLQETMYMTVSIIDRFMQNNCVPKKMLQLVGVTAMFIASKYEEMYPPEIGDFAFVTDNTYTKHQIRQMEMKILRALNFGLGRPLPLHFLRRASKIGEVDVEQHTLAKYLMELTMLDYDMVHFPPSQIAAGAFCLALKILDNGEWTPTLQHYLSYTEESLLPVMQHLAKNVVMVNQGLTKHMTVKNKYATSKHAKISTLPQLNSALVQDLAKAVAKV

[7] = target: c-Abl (Homo sapiens, UniProt P00519); assay: Kinase inhibition at 10 μM, c-Abl; conditions: 10 μM of Compound; read-out: Percentage Inhibition of c-Abl
[8] = target: T1, Flt-3 (Homo sapiens, UniProt P36888); assay: Kinase inhibition at 10 μM, Flt-3; conditions: 10 μM of Compound; read-out: Percentage Inhibition of Flt-3
T1 sequence (P36888 27-993): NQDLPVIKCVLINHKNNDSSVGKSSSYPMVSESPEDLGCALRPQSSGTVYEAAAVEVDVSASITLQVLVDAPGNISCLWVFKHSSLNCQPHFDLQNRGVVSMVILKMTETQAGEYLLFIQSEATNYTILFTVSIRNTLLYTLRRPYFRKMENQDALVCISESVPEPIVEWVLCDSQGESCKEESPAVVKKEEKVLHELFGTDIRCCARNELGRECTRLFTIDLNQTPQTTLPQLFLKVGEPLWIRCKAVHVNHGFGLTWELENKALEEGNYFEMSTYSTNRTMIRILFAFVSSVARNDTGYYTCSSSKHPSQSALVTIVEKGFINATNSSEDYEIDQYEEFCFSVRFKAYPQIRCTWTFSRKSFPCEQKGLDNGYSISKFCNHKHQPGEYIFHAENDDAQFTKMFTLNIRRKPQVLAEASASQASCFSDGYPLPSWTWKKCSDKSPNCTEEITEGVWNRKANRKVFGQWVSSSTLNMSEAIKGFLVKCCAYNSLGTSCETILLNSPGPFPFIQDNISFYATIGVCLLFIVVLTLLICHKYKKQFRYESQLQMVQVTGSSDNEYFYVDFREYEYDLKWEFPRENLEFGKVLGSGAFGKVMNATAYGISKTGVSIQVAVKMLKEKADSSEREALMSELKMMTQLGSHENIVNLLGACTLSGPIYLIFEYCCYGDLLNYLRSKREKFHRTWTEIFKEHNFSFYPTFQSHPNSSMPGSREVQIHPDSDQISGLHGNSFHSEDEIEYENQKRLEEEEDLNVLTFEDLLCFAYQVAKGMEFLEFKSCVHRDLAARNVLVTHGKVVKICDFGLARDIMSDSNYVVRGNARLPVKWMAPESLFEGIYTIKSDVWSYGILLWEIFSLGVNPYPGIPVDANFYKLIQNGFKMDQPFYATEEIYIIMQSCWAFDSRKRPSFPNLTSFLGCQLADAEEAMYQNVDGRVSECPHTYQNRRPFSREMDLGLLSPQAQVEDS

[9] = target: Flt-1 (Homo sapiens, UniProt P17948); assay: Kinase inhibition at 10 μM, Flt-1; conditions: 10 μM of Compound; read-out: Percentage Inhibition of Flt-1
Sequence of Flt-1 (P17948 27-1338, species assumed): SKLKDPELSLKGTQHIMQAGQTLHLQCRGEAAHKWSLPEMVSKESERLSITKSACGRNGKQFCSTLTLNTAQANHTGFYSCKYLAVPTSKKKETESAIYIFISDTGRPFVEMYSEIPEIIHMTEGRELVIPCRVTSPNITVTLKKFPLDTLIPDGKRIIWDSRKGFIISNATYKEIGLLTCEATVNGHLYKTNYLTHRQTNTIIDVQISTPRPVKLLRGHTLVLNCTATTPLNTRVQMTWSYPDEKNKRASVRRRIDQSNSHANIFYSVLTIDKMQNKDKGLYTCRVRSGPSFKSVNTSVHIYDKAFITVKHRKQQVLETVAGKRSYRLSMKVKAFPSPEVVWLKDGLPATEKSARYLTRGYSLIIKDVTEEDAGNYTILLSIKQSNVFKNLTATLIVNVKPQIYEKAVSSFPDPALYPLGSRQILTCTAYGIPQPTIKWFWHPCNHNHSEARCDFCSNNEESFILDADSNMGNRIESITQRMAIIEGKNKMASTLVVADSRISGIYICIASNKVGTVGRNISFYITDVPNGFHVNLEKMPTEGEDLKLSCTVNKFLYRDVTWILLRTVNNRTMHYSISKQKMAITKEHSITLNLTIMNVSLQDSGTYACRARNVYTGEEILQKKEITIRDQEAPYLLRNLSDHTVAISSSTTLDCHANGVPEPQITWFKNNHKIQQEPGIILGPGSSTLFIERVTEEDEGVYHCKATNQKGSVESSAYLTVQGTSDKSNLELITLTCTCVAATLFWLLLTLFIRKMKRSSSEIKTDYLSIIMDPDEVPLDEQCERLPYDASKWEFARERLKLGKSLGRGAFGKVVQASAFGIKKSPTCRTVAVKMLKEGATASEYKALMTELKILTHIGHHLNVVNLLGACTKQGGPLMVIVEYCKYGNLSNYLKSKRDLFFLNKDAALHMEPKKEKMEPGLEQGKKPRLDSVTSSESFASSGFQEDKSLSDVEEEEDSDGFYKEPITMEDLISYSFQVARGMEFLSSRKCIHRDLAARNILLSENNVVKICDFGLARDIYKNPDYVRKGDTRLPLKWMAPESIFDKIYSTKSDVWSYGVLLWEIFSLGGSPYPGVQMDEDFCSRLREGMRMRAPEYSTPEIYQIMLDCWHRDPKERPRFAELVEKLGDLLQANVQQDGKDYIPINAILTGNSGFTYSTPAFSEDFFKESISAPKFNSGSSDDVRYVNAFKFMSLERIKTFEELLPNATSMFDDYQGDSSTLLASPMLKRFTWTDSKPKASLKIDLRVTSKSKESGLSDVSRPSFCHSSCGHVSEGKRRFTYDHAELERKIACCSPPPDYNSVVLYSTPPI

[10] = target: Tek (Homo sapiens, UniProt Q02763); assay: Kinase inhibition at 10 μM, Tek; conditions: 10 μM of Compound; read-out: Percentage Inhibition of Tek
Sequence of Tek (Q02763 23-1124, species assumed): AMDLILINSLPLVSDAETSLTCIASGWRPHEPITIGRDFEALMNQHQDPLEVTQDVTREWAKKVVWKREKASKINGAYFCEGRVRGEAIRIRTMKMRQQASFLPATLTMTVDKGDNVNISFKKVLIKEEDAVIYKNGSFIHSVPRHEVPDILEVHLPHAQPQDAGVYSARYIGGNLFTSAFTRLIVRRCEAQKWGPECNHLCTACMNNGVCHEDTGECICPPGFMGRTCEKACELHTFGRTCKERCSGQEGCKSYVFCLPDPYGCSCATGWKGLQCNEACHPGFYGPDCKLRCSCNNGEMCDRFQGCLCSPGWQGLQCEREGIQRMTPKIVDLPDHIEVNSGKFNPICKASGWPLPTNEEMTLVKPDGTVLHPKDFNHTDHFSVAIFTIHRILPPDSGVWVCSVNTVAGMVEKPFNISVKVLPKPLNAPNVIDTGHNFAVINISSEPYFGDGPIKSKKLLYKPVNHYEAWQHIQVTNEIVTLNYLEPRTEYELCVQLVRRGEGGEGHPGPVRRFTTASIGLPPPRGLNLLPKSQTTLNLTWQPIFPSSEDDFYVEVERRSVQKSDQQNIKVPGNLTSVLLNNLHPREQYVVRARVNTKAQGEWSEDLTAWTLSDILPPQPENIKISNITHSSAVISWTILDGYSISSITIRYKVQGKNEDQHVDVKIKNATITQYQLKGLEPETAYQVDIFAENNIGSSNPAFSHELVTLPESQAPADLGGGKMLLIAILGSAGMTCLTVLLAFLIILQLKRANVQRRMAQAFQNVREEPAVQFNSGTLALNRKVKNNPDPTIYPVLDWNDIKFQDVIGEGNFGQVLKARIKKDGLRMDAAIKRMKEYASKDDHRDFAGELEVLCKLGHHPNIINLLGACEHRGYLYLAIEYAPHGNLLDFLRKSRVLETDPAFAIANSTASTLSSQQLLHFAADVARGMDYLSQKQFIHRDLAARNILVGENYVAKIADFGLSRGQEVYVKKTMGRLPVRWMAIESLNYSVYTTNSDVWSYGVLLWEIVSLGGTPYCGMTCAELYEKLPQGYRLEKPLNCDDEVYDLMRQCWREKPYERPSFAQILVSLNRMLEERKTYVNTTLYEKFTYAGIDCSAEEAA

[11] = target: IGF-1R (Homo sapiens, UniProt P08069); assay: Kinase inhibition at 10 μM, IGF-1R; conditions: 10 μM of Compound; read-out: Percentage Inhibition of IGF-1R
[12] = target: PDGFR-β (Homo sapiens, UniProt P09619); assay: Kinase inhibition at 10 μM, PDGFR-β; conditions: 10 μM of Compound; read-out: Percentage Inhibition of PDGFR-β

Sequence of c-src (P12931 whole entry, species assumed): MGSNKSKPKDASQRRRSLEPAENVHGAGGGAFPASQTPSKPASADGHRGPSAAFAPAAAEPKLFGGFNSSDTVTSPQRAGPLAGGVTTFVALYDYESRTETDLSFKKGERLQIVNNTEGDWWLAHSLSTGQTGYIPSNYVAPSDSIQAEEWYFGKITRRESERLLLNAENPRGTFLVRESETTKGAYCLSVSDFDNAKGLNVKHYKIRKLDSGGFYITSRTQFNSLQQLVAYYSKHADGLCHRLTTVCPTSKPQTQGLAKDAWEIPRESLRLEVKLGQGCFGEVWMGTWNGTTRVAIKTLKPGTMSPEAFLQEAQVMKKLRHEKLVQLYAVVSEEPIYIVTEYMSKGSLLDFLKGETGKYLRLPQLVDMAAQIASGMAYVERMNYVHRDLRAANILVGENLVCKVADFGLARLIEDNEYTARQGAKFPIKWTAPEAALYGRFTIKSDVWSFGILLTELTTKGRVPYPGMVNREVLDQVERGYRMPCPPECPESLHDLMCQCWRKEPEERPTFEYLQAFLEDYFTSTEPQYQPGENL

Row | inhibition at 10 µM [1] [%] | inhibition at 10 µM [2] [%] | inhibition at 10 µM [3] [%] | inhibition at 10 µM [4] [%] | inhibition at 10 µM [5] [%] | inhibition at 10 µM [6] [%] | inhibition at 10 µM [7] [%] | inhibition at 10 µM [8] [%] | inhibition at 10 µM [9] [%] | inhibition at 10 µM [10] [%] | inhibition at 10 µM [11] [%] | inhibition at 10 µM [12] [%] | SMILES
1 | 89 | 86 | 89 | 70 | 74 | 99 | – | – | – | – | – | – | NC1=NC(=O)/C(=C2\CCNC(=O)c3[nH]c4ccc(F)cc4c32)N1 [Compound 12, 5-(2-amino-5-oxo-3,5-dihydro-imidazol-4-ylidene)-7-fluoro-3,4,5,10-tetrahydro-2H-azepino[3,4-b]indol-1-one]
2 | 92 | 79 | – | – | – | 88 | 91 | 72 | 85 | 73 | 82 | – | O=C1NCC/C(=N\Nc2ccccn2)c2c1[nH]c1ccc(Cl)cc21 [Compound 24, 7-chloro-5-(pyridin-2-yl-hydrazono)-3,4,5,10-tetrahydro-2H-azepino[3,4-b]indol-1-one]
3 | – | – | – | – | – | 95 | – | – | – | – | – | – | NS(=O)(=O)c1ccc(N/N=C2\CCNC(=O)c3[nH]c4ccc(Cl)cc4c32)cc1 [Compound 31, 4-[N′-(7-chloro-1-oxo-1,3,4,10-tetrahydro-2H-azepino[3,4-b]indol-5-ylidene)-hydrazino]-benzenesulfonamide]
4 | 78 | – | – | – | – | 97 | – | – | – | 70 | – | 97 | O=C1NCC/C(=N\Nc2cccnc2)c2c1[nH]c1ccc(Cl)cc21 [Compound 33, 7-chloro-5-(pyridin-3-yl-hydrazono)-3,4,5,10-tetrahydro-2H-azepino[3,4-b]indol-1-one]
5 | 90 | – | – | – | – | 98 | 86 | 75 | 79 | 81 | 76 | – | O=C1NCC/C(=N\Nc2ccccn2)c2c1[nH]c1ccc(F)cc21 [Compound 37, 7-fluoro-5-(pyridin-2-yl-hydrazono)-3,4,5,10-tetrahydro-2H-azepino[3,4-b]indol-1-one]
